Each structure is given as a SMILES string.

This assay concerns Hepatitis C replicon in Huh-7 cells. In words: HCV replicon replication assay (NPT ELISA). Type of assay: cell-based. The settings on record: Hepatitis C virus, Huh-7, 72 h. The procedure: Compounds claimed herein are tested for the ability to inhibit viral replication of the Hepatitis C replicon in cultured cells in which the HCV replicon construct has been incorporated. The HCV replicon system was described by Bartenschlager, et. al (Science, 285, pp. 110-113 (1999)). The replicon system is predictive of in vivo anti-HCV activity; compounds that are active in humans uniformly evidence activity in the replicon assay.
In this assay HCV replicon containing cells are treated with different concentrations of the test compound to ascertain the ability of the test compound to suppress replication of the HCV replicon. As a positive control, HCV replicon-containing cells are treated with different concentrations of interferon alpha, a known inhibitor of HCV replication. The replicon assay system includes Neomycin Phosphotransferase (NPT) as a component of the replicon itself in order to detect the transcription of replicon gene products in the host cell. Cells in which the HCV replicon is actively replicating have high levels of NPT; the level of NPT is proportional to HCV replication. […] The NPT level of each sample is measured using a captured ELISA.
A protocol for testing compounds for the ability to inhibit viral replication of the Hepatitis C replicon cultured cells in which the replicon construct has been incorporated, follows.
The HCV replicon contains, 5′-3′, the HCV-IRES, the neomycin phosphotransferase (neo) gene, the IRES of encephalomyocarditis virus, which directs translation of HCV sequences NS3 to NS5B, and the 3′-NTR. The sequence of the HCV replicon has been deposited in GenBank (Accession no. AJ242652).
The replicon is transfected into Huh-7 cells using standard methods such as electroporation.
The cells are then seeded onto 96-well plates at a density of 6000-7500 cells/100 microliters/well (6-7.5×10^5 cells/10 ml/plate). The plates are then incubated at 37° C. in a 5% CO2 incubator.
HCV replicon-containing cells are rinsed with once PBS once; 2 mls of trypsin are then added. Cells are incubated at 37° C. in a 5% CO2 incubator for 3-5 minutes. 10 mls of complete medium is added to stop the reaction. Cells are blown gently, put into a 15 ml tube, and spun at 1200 rpm for four minutes. The trypsin/medium solution is removed and 5 mls of medium (500 ml DMEM (high glucose)) from BRL catalog #12430-054; 50 mls 10% FBS, 5% Geneticin G418 (50 mg/ml, BRL catalog #10131-035), 5 ml MEM non-essential amino acids (100×BRL #11140-050) and 5 ml pen-strep (BRL #15140-148) is added. The cells and media are mixed carefully
Cells are plated with screening medium (500 ml DMEM (BRL #21063-029), 50 ml FBS (BRL #10082-147) and 5 ml MEM non-essential amino acid (BRL #11140-050) at 6000-7500 fcells/100 μl/well of 96 well plate (6-7.5×10^5 cells/10 ml/plate). Plates are placed into 37° C. 5% CO2 incubator overnight.
The following morning, drugs (test compounds or interferon alpha) are diluted in 96 well U bottom plates with media or DMSO/media, depending on the final concentration chosen for screening. Generally for 6 concentrations of each test compounds ranging from 10 micromolar to 0.03 micromolar are applied. 100 μl of the test compound dilution is placed in wells of the 96 well plate containing the HCV replicon cells. Media without drug is added to some wells as a negative controls. DMSO is known to affect cell growth. Therefore, if drugs diluted in DMSO are used, all wells, including negative control (media only) and positive control (interferon alpha) wells, must contain the same concentration of DMSO, for single dose screening. The plates are incubated at 37° C. in a humidified 5% CO2 environment for three days.
On day four, the NTPII assay is quantitated. The medium is poured from the plates and the plates are washed once in 200 μl of PBS. The PBS is then decanted and the plates tapped in a paper towel to remove any remaining PBS. […]
A general note: A replicon is a self-replicating genome or part of one, used to study replication in cells.
The molecule `C=CC1CC1(NC(=O)[C@@H]1C[C@@H](Oc2cc(-c3ccccc3)nc3cc(OC)ccc23)CN1C(=O)[C@@H](CC(=O)N1CCCC1)C(C)(C)C)C(=O)O` (stereo partly drawn) [Compound 38, 1-((2S,4R)-1-((S)-2-tert-butyl-4-oxo-4-(pyrrolidin-1-yl)butanoyl)-4-(7-methoxy-2-phenylquinolin-4-yloxy)pyrrolidine-2-carboxamido)-2-vinylcyclopropanecarboxylic acid] came in with an EC50 above 10 µM. For `C=CC1CC1(NC(=O)[C@@H]1C[C@@H](Oc2cc(-c3ccccc3)nc3cc(OC)ccc23)CN1C(=O)[C@@H](CC(=O)N1CCCC1)C(C)(C)C)C(=O)OCC` (stereo partly drawn) [Compound 39, ethyl 1-((2S,4R)-1-((S)-2-tert-butyl-4-oxo-4-(pyrrolidin-1-yl)butanoyl)-4-(7-methoxy-2-phenylquinolin-4-yloxy)pyrrolidine-2-carboxamido)-2-vinylcyclopropanecarboxylate] the value was above 10 µM; for `C=CC1CC1(NC(=O)[C@@H]1C[C@@H](Oc2cc(-c3ccccc3)nc3cc(OC)ccc23)CN1C(=O)[C@@H](CC(=O)N1CCCCC1)C(C)(C)C)C(=O)OCC` (stereo partly drawn) [Compound 40, ethyl 1-((2S,4R)-1-((S)-2-tert-butyl-4-oxo-4-(piperidin-1-yl)butanoyl)-4-(7-methoxy-2-phenylquinolin-4-yloxy)pyrrolidine-2-carboxamido)-2-vinylcyclopropanecarboxylate], above 10 µM; for `C=CC1CC1(NC(=O)[C@@H]1C[C@@H](Oc2cc(-c3ccccc3)nc3cc(OC)ccc23)CN1C(=O)[C@@H](CC(=O)N1CCCCC1)C(C)(C)C)C(=O)O` (stereo partly drawn) [Compound 41, 1-((2S,4R)-1-((S)-2-tert-butyl-4-oxo-4-(piperidin-1-yl)butanoyl)-4-(7-methoxy-2-phenylquinolin-4-yloxy)pyrrolidine-2-carboxamido)-2-vinylcyclopropanecarboxylic acid], 1 to 10 µM. For the molecule `C=CC1CC1(NC(=O)[C@@H]1C[C@@H](Oc2cc(-c3ccccc3)nc3cc(OC)ccc23)CN1C(=O)[C@@H](CC(=O)N1CCC(O)C1)C(C)(C)C)C(=O)O` (stereo partly drawn) [Compound 42, 1-((2S,4R)-1-((2S)-2-tert-butyl-4-(3-hydroxypyrrolidin-1-yl)-4-oxobutanoyl)-4-(7-methoxy-2-phenylquinolin-4-yloxy)pyrrolidine-2-carboxamido)-2-vinylcyclopropanecarboxylic acid], the EC50 is above 10 µM. For `C=CC1CC1(NC(=O)[C@@H]1C[C@@H](Oc2cc(-c3ccccc3)nc3cc(OC)ccc23)CN1C(=O)[C@@H](CC(=O)N1CCN(C)CC1)C(C)(C)C)C(=O)O` (stereo partly drawn) [Compound 43, 1-((2S,4R)-1-((S)-2-tert-butyl-4-(4-methylpiperazin-1-yl)-4-oxobutanoyl)-4-(7-methoxy-2-phenylquinolin-4-yloxy)pyrrolidine-2-carboxamido)-2-vinylcyclopropanecarboxylic acid] the value was above 10 µM; for `C=CC1CC1(NC(=O)[C@@H]1C[C@@H](Oc2cc(-c3ccccc3)nc3cc(OC)ccc23)CN1C(=O)[C@@H](CC(=O)N1CCCCC1C(N)=O)C(C)(C)C)C(=O)O` (stereo partly drawn) [Compound 44, 1-((2S,4R)-1-((2S)-2-tert-butyl-4-(2-carbamoylpiperidin-1-yl)-4-oxobutanoyl)-4-(7-methoxy-2-phenylquinolin-4-yloxy)pyrrolidine-2-carboxamido)-2-vinylcyclopropanecarboxylic acid], above 10 µM. Next, `C=CC1CC1(NC(=O)[C@@H]1C[C@@H](Oc2cc(-c3ccccc3)nc3cc(OC)ccc23)CN1C(=O)[C@@H](CC(=O)N1CCCCC1C(N)=O)C(C)(C)C)C(=O)OCC` (stereo partly drawn) [Compound 45, ethyl 1-((2S,4R)-1-((2S)-2-tert-butyl-4-(2-carbamoylpiperidin-1-yl)-4-oxobutanoyl)-4-(7-methoxy-2-phenylquinolin-4-yloxy)pyrrolidine-2-carboxamido)-2-vinylcyclopropanecarboxylate]: 1 to 10 µM; `C=CC1CC1(NC(=O)[C@@H]1C[C@@H](Oc2cc(-c3ccccc3)nc3cc(OC)ccc23)CN1C(=O)[C@@H](CC(=O)N1CCC(CNC(=O)OC(C)(C)C)CC1)C(C)(C)C)C(=O)O` (stereo partly drawn) [Compound 46, 1-((2S,4R)-1-((S)-4-(4-((tert-butoxycarbonylamino)methyl)piperidin-1-yl)-2-tert-butyl-4-oxobutanoyl)-4-(7-methoxy-2-phenylquinolin-4-yloxy)pyrrolidine-2-carboxamido)-2-vinylcyclopropanecarboxylic acid]: above 10 µM; `C=CC1CC1(NC(=O)[C@@H]1C[C@@H](Oc2cc(-c3ccccc3)nc3cc(OC)ccc23)CN1C(=O)[C@@H](CC(=O)N1CCCCC1)C(C)(C)C)C(=O)NS(=O)(=O)C1CC1` (stereo partly drawn) [Compound 49, (2S,4R)-1-((S)-2-tert-butyl-4-oxo-4-(piperidin-1-yl)butanoyl)-N-(1-(cyclopropylsulfonylcarbamoyl)-2-vinylcyclopropyl)-4-(7-methoxy-2-phenylquinolin-4-yloxy)pyrrolidine-2-carboxamide]: below 0.1 µM.

`C=CC1CC1(NC(=O)[C@@H]1C[C@@H](Oc2cc(-c3ccccc3)nc3cc(OC)ccc23)CN1C(=O)[C@@H](CC(=O)N1CCc2ccccc2C1)C(C)(C)C)C(=O)OCC` (stereo partly drawn) [Compound 51, ethyl 1-((2S,4R)-1-((S)-2-tert-butyl-4-(3,4-dihydroisoquinolin-2(1H)-yl)-4-oxobutanoyl)-4-(7-methoxy-2-phenylquinolin-4-yloxy)pyrrolidine-2-carboxamido)-2-vinylcyclopropanecarboxylate] gave an EC50 above 10 µM.

Take `COc1cc(O[C@@H]2C[C@H]3C(=O)N[C@]4(C(=O)O)C[C@H]4/C=C\CCCCC[C@H](CC(=O)N4CCCCC4)C(=O)N3C2)c2ccc(-c3ccccc3)nc2c1` [Compound 52, (2R,6R,13aS,14aR,16aS,Z)-2-(7-methoxy-2-phenylquinolin-4-yloxy)-5,16-dioxo-6-(2-oxo-2-(piperidin-1-yl)ethyl)-1,2,3,5,6,7,8,9,10,11,13a,14,14a,15,16,16a-hexahydrocyclopropa[e]pyrrolo[1,2-a] [1,4]diazacyclopentadecine-14a-carboxylic acid]: the EC50 is above 10 µM.

As for `C=CC1CC1(NC(=O)[C@@H]1C[C@@H](Oc2cc(-c3ccccc3)nc3cc(OC)ccc23)CN1C(=O)[C@@H](CC(=O)N1CCCc2ccccc21)C(C)(C)C)C(=O)O` (stereo partly drawn) [Compound 56, 1-((2S,4R)-1-((S)-2-tert-butyl-4-(3,4-dihydroquinolin-1(2H)-yl)-4-oxobutanoyl)-4-(7-methoxy-2-phenylquinolin-4-yloxy)pyrrolidine-2-carboxamido)-2-vinylcyclopropanecarboxylic acid], the EC50 was in the range of 1 to 10 µM. For `C=CC1CC1(NC(=O)[C@@H]1C[C@@H](Oc2cc(-c3ccccc3)nc3cc(OC)ccc23)CN1C(=O)[C@@H](CC(=O)N1CCc2ccccc2C1)C(C)(C)C)C(=O)O` (stereo partly drawn) [Compound 57, 1-((2S,4R)-1-((S)-2-tert-butyl-4-(3,4-dihydroisoquinolin-2(1H)-yl)-4-oxobutanoyl)-4-(7-methoxy-2-phenylquinolin-4-yloxy)pyrrolidine-2-carboxamido)-2-vinylcyclopropanecarboxylic acid] the value was above 10 µM.

For orientation: EC50 means the concentration that produces a half-maximal response. A high value points to a less potent agent.

The values above are taken from patent publication US9233136B2, “4-amino-4-oxobutanoyl peptides as inhibitors of viral replication” (Achillion Pharmaceuticals, Inc., priority 2006, dated 2016).
